Assay results reported in patent US20090253771A1, “INHIBITION OF GLIOTOXIN” (priority 2006, published 2009).
Where a SMILES comes first, the peptide text is derived from it. The star is where a group is joined. Cbz = O=C(OCc1ccccc1)*; CH2F = FC*

What was measured:
[1] = test system: mouse embryonic fibroblasts (MEFs); assay: Gliotoxin-induced apoptosis in MEFs: nuclear fragmentation (Hoechst 33342), PS exposure (annexin V-FITC) and PI uptake; type: cell-based; conditions: 1 μM GT, 4 h
Experimental: (§1) Gliotoxin (GT) was purified from Penicillium terlikowskii as described [Waring, 1988]. For apoptosis induction, 4×10^5 MEFs were incubated with different concentrations of GT or staurosporine (Sigma) for 4 h and apoptosis assays were performed as described below. In some cases the general caspase inhibitor Ac-ZVAD-fmk (Bachem) or the ROS scavengers N-acetylcysteine (NAC) (Sigma) or MnTBAP (Calbiochem) were added as described [Pardo, 2004]. To test the inhibitory potency of Ac-ZVAD-.fmk, MBL-2. Fas cells were incubated with anti-Fas mAb Jo-2 (1 μg/ml) for 24 h in the presence or absence of 100 μM of the caspase inhibitor and cell death was analysed by trypan blue exclusion. Nuclei were stained with 10 μg/ml of Hoechst 33342 (Molecular Probes).
(§2) Phosphatidylserine (PS) exposure and propidium iodide (PI) uptake was analysed by FACS or fluorescence microscopy as described [Pardo, 2004] using the annexin V-FITC kit from BD Pharmingen. The mitochondrial membrane potential was measured with the fluorescent probe 3,3′-dihexyloxacarbocyanine iodide (DiOC6(3), Molecular Probes) and ROS generation with 2-hydroxiethidine (2-HE, Molecular Probes) as described [Pardo, 2004].

[2] = test system: mouse embryonic fibroblasts (MEFs); assay: Mitochondrial membrane potential (DiOC6(3)) and ROS generation (2-HE) by FACS; type: cell-based; conditions: 1 μM GT, 4 h; for effect on GT-induced ROS production: 15 mM scavenger
Experimental: as §1, §2

[3] = test system: mouse embryonic fibroblasts (MEFs); assay: Cell death (trypan blue exclusion) and cell detachment by microscopic inspection; type: cell-based
Experimental: as §1

Bak = target: T1, Bak (Mus musculus, UniProt O08734); assay: Conformational change of Bak (FACS, N-terminus-specific antibody); type: cell-based; conditions: 4 h; for effect on GT-induced N-terminal opening of Bak: 100 μM Z-VAD.fmk or 15 mM NAC or MnTBAP
T1 construct: endogenous in cells; host or cells: SV40-transformed mouse embryonic fibroblasts (wt, Bid-/-; Bak-/-xBax-/- as negative control)
T1 sequence (O08734 1-209): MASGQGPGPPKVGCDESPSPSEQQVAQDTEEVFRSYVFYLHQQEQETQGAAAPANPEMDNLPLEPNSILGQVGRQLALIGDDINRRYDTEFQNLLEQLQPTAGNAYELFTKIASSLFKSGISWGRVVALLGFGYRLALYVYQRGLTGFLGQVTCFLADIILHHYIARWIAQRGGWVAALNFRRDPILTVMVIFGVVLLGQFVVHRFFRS
Experimental: (§3) MEFs were fixed in 4% PFA, permeabilized with 0.1% saponin in PBS/5% fetal calf serum (FCS) and incubated with 2 μg/ml rabbit polyclonal anti-Bak (NT, Upstate Biotechnology) 5 μg/ml rabbit polyclonal anti-Bax (NT, Upstate Biotechnology) or 5 μg/ml rabbit purified IgG (control). After two washes with 0.1% saponin in PBS, the cells were incubated with anti rabbit-FITC antibody in 0.1% saponin/PBS/5% FCS, washed twice in 0.1% saponin/PBS, resuspended in 1% PFA/PBS and analysed by FACS with a FACScan (BD) and CellQuest® software.

[4] = test system: mouse embryonic fibroblasts (MEFs); assay: Cytochrome c release on cells (FACS); type: cell-based; conditions: 1 μM GT, 4 h
Experimental: (§4) Cytochrome c release was quantified by FACS analysis as recently described [Waterhouse, 2003]. Briefly, 1×10^6 of MEFs were mildly permeabilized with 25 μg/ml digitonin plus 100 mM KCl on ice for 5 min. This lead to the cellular loss of cytosolic cytochrome c. Cells were washed once with cold PBS, fixed in 4% PFA, permeabilized with 0.05% saponin and 3% BSA and then incubated with the anti-cytochrome c mAb 6H2.B4 (BD Pharmingen) or mouse IgG isotype control (Jackson) followed by anti-mouse-FITC secondary antibody (Jackson). The cells were resuspended in 100 μl PFA in PBS and analysed by FACS with a FACScan (BD) and CellQuest® software. For the analysis of the nuclear translocation of AIF, cells were fixed, mounted on poly-L-lysine coverslides and stained with a rabbit polyclonal antiAIF antibody (Sigma) as described [Pardo, 2001]. Afterwards the cells were analysed by confocal microscopy using a Leica SP2 confocal microscope and Imaris® software.

[5] = test system: mouse embryonic fibroblasts (MEFs); assay: Nuclear translocation of AIF (confocal microscopy); type: cell-based; conditions: 1 μM GT, 4 h
Experimental: as §4

MBL-2.Fas cells = assay: Anti-Fas mAb Jo-2 induced cell death (trypan blue exclusion), test of the caspase inhibitor; type: cell-based; conditions: 1 μg/ml Jo-2, 24 h; 100 μM inhibitor
Experimental: as §1

caspase-3 = assay: Caspase-3 activation (FACS, antibody against the active form); type: cell-based, mouse; conditions: 1 μM GT, 4 h; wt and Bax−/− MEFs
Experimental: Cells were fixed with 4% paraformaldehyde (PFA) and incubated with a monoclonal antibody against the active form of caspase-3 (clone C92605, BD Pharmingen). Following incubation with a FITC-labeled secondary antibody, the cells were analyzed by FACS as described [Pardo, 2004].

[6] = test system: mitochondria isolated from MEFs or FDMs; assay: Cytochrome c release from isolated mitochondria; type: biochemical, mouse
Experimental: 8×10^7 MEFs or FDMs were centrifuged and washed once in PBS. The cell pellets were resuspended in 500 μl MSH-Buffer (210 mM mannitol; 70 mM sucrose; 20 mM HEPES; 1 mM EDTA; pH 7,5; 100 μM PMSF; 400 ng/ml pepstatin; 10 μg/ml leupeptin; 10 μg/ml aprotinin and 5 μg/ml cytochalasin B). The resuspended cell pellet was incubated on ice for 15 min before the cells were broken by passaging 25 times through a 23-gauge needle. The lysate was centrifuged at 500×g for 5 min to remove cell debris and nuclei. A crude mitochondrial pellet was then obtained by centrifugation at 10,000×g for 15 min and resuspended in MSH-Buffer. The isolated mitochondria were incubated with different concentrations of GT (10 μM, 20 μM and 50 μM), or 40 nM of recombinant tBid as a positive control at 37° C. for 4 hr. Following incubation, the mitochondria were pelleted, and both, pellet and supernatant were tested for cytochrome c release by SDS-PAGE.

Fas-negative cells = assay: GT-induced pro-apoptotic processes in Fas-negative cells (cell adhesion / cell death, neutral red); type: cell-based
Experimental: This pro-apoptotic activity may be inhibited by GT-inhibitors, e.g. anti-GT-antibodies. The degree of cell adhesion and/or cell death may be determined by standard methods. For example, the cells may be labelled with a suitable dye, e.g. neutral red, allowed to adhere and incubated subsequently with GT in the presence of a test compound. After an appropriate incubation time, the non-adherent cells may be removed and the remaining adherent cells and/or the removed cells may be determined. For example, the dye neutral red may be released from cells by […]/ethanol. Non-adherent cells equating with cell death may be quantitatively determined, e.g. with an optical detection method, preferably by measuring the absorbance at 540 nm according to standard methods, e.g. in a microplate reader.
Screening for antifungal agents capable of inhibiting the interaction between GT and Bak can be performed by means of the methylcholanthrene-induced cell line MC.Fas^−/− (date of deposition at DSMZ: 4 May 2006) stained with the vital dye Neutral Red. […] Cell loss equates with cell death resulting from GT-induced pro-apoptotic processes, and is quantified automatically by loss of absorbance at 540 nm using a microplate reader.

Bax = assay: Conformational change of Bax (FACS, N-terminus-specific antibody); type: cell-based, mouse; conditions: staurosporine 1 and 5 μM, 4 h, MEFs
Experimental: as §3

[7] = 10, 20 or 50 μM GT, 4 h, 37° C.

CC(=O)N[C@@H](CS)C(=O)O [NAC, N-acetylcysteine]
effect on GT-induced PS exposure and plasma membrane permeability ([1]; wt MEFs, 15 mM NAC): abrogated | effect on GT-induced reduction of the mitochondrial Δψm ([2]; wt MEFs, 15 mM NAC): abrogated | effect on GT-induced ROS production ([2]; wt MEFs): significantly reduced | effect on GT-induced cell death (trypan blue staining) ([3]; wt MEFs, 1 μM GT, 4 h, NAC): totally inhibited | effect on GT-induced cell detachment ([3]; wt MEFs, 1 μM GT, 4 h, NAC): totally inhibited | effect on GT-induced N-terminal opening of Bak (Bak; wt MEFs, 1 μM GT): unaffected | effect on GT-induced cytochrome c release from mitochondria ([4]; wt MEFs, 15 mM NAC): greatly diminished | effect on GT-induced AIF release from mitochondria ([5]; wt MEFs, 15 mM NAC): greatly diminished

COC(=O)C[C@H](NC(=O)[C@H](C)NC(=O)[C@@H](NC(=O)OCc1ccccc1)C(C)C)C(=O)CF [Z-VAD.fmk] (Cbz-Val-Ala-Asp(OMe)-CH2F)
effect on GT-induced annexin-V/PI staining ([1]; wt MEFs, 100 μM Z-VAD.fmk): reduced | effect on loss of the mitochondrial Δψm in GT-treated cells ([2]; wt MEFs, 100 μM Z-VAD.fmk): did not prevent | effect on GT-induced cell death ([3]; wt MEFs, GT 4 h, Z-VAD.fmk): reduced | effect on GT-induced N-terminal opening of Bak (Bak; wt MEFs, 1 μM GT): unaffected | effect on GT-induced cytochrome c release ([4]; wt MEFs, 100 μM Z-VAD): not blocked | effect on GT-induced AIF release ([5]; wt MEFs, 100 μM Z-VAD): not blocked | effect on apoptosis induced by the anti-Fas antibody Jo-2 (MBL-2.Fas cells): blocked

O=C(O)c1ccc(/C2=C3\C=CC(=N3)/C(c3ccc(C(=O)O)cc3)=c3/cc/c4[n]3[Mn]([Cl])[n]3c2ccc3/C(c2ccc(C(=O)O)cc2)=C2/C=CC(=N2)\C=4c2ccc(C(=O)O)cc2)cc1 [MnTBAP, Mn(III) tetrakis(4-benzoic acid)porphirin chloride]
effect on GT-induced ROS production ([2]; wt MEFs): significantly reduced | effect on GT-induced N-terminal opening of Bak (Bak; wt MEFs, 1 μM GT): unaffected

CN1C(=O)[C@]23CC4=CC=C[C@H](O)[C@H]4N2C(=O)[C@@]1(CO)SS3 [GT, Gliotoxin]
apoptotic cells (PS exposed, annexin-V staining, without plasma membrane disruption) ([1]; wt MEFs): ~50% | nuclear fragmentation ([1]; wt MEFs, Hoechst 33342): nuclear fragmentation in the majority | number of annexin-V/PI positive cells vs mock treated cells ([1]; Bak−/− and Bak−/−×Bax−/− MEFs): did not | number of annexin-V/PI positive cells vs mock treated cells ([1]; wt, Bak−/− (so in the source) and Bid−/− MEFs): significantly increased | ROS production ([2]; wt, Bax−/− and Bid−/− MEFs): parallel increase | mitochondrial membrane potential (Δψm) ([2]; wt, Bax−/− and Bid−/− MEFs): significant reduction | GT-mediated cell death (trypan blue exclusion) ([3]; increasing amounts of GT, 4 h, Bak−/− and Bak−/−×Bax−/− MEFs, not wt or Bax−/−): significantly reduced | GT-induced loss of cell adherence ([3]; increasing amounts of GT, 4 h, Bax- and/or Bak-deficient MEFs vs wt): only marginally, if at all, diminished | N-terminal epitope exposure (conformational change) of Bak (Bak; 1 μM GT, wt MEFs): readily induce N-terminal epitope exposure in Bak | caspase-3 activation (caspase-3): significantly activated | mitochondrial cytochrome c ([4]; Bak−/− or Bak−/−×Bax−/− MEFs): retained | mitochondrial cytochrome c ([4]; wt and Bax−/− MEFs): reduced | localization of AIF ([5]; Bak−/− and Bak−/−×Bax−/− MEFs): retained most of the AIF in the mitochondria | cells with cytosolic localization and nuclear translocation of AIF ([5]; wt and Bax−/− MEFs): a high portion | cytochrome c release from isolated mitochondria [6, 7]: dose-dependent manner | cytochrome c release from isolated mitochondria compared with 40 nM recombinant tBid [6, 7]: as efficient as that induced by recombinant tBid | cytochrome c release from isolated mitochondria ([6]; mitochondria from Bak−/− or Bak−/−×Bax−/− MEFs or FDMs): absent | induction of pro-apoptotic processes resulting in loss of cell adhesion and cell death (Fas-negative cells): dose-dependent manner

CN[C@@H]1C[C@H]2O[C@@](C)([C@@H]1OC)n1c3ccccc3c3c4c(c5c6ccccc6n2c5c31)C(=O)NC4 [staurosporine]
activation of Bak (Bak; staurosporine 1 and 5 μM, MEFs): activates both Bax and Bak | N-terminal conformational change of Bax (Bax): led to the expected N-terminal opening of Bax
